This is an account of results in patent publication US12240844B2 (Voronoi, Inc., priority 2019, dated 2025).

Holding throughout (assay): scanMAX Kinase panel (DiscoverX), % control
Common to all, as to format: binding
Settings in all cases: <35% = active

In one test the target is T1, ALK (Homo sapiens, UniProt Q9UM73).
T1 construct: purchased DiscoverX
The procedure: (§1) Specifically, for Examples 162, 160, 105, 217, 205, 96, 207, 184, 206, 221, 238, and 237 selected among the example compounds of the present invention, it was decided to measure enzyme (kinase) selectivity by DiscoverX, and the experiment was conducted using a panel for scanMAX™ Kinase analysis. At this time, the concentration of the drug treated with the enzyme was 1 uM in DMSO, the control percentage (% control) was determined in the same way as in Equation 1 below, and the results were shown in Table 6 below. [formula] Here, the positive control refers to a compound showing a control percentage of 0%, and the negative control is DMSO, indicating a control percentage of 100%. Also, in the enzyme selectivity of the present invention, if the control percentage for each enzyme was <35% (i.e., less than 35%), it was determined to have activity against the relevant enzyme.

The next test has as its target T2, CLK3 (Homo sapiens, UniProt P49761).
T2 construct: purchased DiscoverX
As for the experimental part: as §1

The next test concerns the target T3, CLK1 (Homo sapiens, UniProt P49759).
T3 construct: purchased DiscoverX
The procedure:
as §1

The next test deals with T4, GAK (Homo sapiens, UniProt O14976).
T4 construct: purchased DiscoverX
T4 sequence (O14976 1-1311): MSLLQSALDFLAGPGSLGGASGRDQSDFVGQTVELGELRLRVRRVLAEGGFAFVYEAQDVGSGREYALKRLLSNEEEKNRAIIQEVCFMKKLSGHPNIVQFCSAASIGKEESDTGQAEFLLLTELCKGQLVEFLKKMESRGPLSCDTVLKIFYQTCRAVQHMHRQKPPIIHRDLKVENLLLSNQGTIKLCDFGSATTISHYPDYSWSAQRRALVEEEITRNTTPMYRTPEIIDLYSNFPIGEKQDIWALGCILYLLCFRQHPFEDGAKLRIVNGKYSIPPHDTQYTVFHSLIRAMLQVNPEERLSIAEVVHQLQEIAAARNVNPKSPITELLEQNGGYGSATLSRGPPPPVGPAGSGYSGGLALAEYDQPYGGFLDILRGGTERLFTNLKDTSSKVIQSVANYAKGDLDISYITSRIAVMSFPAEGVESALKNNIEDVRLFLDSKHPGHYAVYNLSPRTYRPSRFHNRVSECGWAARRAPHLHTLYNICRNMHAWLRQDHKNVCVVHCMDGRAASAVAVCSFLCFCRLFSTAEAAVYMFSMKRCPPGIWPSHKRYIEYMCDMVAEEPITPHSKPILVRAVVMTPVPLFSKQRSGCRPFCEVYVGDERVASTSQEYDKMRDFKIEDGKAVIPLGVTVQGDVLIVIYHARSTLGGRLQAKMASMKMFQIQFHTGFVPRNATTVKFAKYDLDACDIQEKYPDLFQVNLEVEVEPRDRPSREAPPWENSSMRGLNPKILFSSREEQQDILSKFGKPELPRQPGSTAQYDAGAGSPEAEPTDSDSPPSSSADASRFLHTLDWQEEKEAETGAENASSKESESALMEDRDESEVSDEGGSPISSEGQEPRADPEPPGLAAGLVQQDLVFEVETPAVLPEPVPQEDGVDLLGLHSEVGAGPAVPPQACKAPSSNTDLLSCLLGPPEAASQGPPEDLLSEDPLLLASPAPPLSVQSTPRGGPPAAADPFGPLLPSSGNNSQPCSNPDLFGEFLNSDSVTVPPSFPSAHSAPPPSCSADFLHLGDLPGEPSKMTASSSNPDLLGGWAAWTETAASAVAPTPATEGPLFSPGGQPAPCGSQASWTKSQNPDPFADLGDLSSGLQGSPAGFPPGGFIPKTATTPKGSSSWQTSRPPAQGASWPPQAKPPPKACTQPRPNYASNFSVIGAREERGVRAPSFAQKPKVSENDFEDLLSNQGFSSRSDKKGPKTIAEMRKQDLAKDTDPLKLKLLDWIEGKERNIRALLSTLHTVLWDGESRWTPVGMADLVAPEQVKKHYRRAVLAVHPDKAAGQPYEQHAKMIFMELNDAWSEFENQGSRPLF
The procedure:
as §1

A further test has as its target T5, CLK4 (Homo sapiens, UniProt Q9HAZ1).
T5 construct: purchased DiscoverX
As for the experimental part: as §1

The target in another test is T6, DYRK1B (Homo sapiens, UniProt Q9Y463).
T6 construct: purchased DiscoverX
T6 sequence (Q9Y463 whole entry): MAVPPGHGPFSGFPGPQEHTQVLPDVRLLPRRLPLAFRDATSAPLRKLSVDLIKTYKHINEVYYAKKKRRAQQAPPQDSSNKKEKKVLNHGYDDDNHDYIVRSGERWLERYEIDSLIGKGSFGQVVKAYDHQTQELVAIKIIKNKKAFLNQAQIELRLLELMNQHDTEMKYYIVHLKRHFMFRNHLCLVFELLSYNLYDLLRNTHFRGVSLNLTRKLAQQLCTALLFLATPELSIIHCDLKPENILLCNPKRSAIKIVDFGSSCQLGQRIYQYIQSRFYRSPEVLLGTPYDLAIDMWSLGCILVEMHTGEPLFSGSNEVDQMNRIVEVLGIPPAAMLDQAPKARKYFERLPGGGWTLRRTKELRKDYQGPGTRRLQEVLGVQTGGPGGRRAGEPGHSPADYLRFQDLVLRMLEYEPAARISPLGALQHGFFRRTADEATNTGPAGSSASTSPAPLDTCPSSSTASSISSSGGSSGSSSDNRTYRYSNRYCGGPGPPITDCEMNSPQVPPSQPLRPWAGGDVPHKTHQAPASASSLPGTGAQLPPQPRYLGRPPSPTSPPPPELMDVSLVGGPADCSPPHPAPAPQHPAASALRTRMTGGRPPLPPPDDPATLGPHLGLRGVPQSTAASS
As for the experimental part: as §1

The target of another test is T7, DYRK2 (Homo sapiens, UniProt Q92630).
T7 construct: purchased DiscoverX
T7 sequence (Q92630 1-601): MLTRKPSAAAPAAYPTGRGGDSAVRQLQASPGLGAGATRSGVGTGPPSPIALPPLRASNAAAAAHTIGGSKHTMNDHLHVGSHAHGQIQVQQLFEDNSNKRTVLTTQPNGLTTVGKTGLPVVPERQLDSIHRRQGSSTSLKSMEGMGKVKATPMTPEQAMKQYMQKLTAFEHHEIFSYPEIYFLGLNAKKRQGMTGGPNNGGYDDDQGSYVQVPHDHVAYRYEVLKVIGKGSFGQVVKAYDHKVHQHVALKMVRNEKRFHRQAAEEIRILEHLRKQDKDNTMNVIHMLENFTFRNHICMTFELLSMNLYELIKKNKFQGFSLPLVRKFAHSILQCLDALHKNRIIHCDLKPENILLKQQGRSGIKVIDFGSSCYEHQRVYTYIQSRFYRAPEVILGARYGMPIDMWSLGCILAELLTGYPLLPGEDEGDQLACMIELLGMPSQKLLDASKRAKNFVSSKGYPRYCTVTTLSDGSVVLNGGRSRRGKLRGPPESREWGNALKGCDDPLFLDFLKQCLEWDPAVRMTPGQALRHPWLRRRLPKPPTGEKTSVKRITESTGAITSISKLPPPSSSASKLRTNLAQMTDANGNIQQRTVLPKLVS
The procedure: as §1

SMILES strings stand for the structures.

T2 sequence (P49761 whole entry): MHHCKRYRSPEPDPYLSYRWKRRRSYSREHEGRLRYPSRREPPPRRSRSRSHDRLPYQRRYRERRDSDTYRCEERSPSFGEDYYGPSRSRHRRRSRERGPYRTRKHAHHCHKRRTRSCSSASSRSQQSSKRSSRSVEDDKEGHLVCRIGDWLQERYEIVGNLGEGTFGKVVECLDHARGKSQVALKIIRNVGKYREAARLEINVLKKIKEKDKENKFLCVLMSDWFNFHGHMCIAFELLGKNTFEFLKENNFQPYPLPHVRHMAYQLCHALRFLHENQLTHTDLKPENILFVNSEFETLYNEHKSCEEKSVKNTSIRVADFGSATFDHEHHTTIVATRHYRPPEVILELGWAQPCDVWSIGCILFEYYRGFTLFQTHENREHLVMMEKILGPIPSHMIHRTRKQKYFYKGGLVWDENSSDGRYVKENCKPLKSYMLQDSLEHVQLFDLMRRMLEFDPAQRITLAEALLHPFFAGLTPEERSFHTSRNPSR
T5 sequence (Q9HAZ1 whole entry): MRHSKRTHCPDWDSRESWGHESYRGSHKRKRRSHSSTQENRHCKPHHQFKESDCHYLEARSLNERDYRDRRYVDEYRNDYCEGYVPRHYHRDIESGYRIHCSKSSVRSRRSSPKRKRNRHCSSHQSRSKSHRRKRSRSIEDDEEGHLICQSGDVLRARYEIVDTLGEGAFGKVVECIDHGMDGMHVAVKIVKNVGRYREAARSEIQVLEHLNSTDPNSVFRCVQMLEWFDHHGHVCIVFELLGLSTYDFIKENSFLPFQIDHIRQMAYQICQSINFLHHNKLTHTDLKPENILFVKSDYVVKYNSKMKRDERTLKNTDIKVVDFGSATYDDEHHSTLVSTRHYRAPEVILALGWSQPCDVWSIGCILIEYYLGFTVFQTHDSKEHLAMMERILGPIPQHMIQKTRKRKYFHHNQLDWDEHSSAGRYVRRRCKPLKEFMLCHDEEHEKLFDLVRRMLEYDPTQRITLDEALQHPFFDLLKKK
T1 sequence (Q9UM73 19-1620): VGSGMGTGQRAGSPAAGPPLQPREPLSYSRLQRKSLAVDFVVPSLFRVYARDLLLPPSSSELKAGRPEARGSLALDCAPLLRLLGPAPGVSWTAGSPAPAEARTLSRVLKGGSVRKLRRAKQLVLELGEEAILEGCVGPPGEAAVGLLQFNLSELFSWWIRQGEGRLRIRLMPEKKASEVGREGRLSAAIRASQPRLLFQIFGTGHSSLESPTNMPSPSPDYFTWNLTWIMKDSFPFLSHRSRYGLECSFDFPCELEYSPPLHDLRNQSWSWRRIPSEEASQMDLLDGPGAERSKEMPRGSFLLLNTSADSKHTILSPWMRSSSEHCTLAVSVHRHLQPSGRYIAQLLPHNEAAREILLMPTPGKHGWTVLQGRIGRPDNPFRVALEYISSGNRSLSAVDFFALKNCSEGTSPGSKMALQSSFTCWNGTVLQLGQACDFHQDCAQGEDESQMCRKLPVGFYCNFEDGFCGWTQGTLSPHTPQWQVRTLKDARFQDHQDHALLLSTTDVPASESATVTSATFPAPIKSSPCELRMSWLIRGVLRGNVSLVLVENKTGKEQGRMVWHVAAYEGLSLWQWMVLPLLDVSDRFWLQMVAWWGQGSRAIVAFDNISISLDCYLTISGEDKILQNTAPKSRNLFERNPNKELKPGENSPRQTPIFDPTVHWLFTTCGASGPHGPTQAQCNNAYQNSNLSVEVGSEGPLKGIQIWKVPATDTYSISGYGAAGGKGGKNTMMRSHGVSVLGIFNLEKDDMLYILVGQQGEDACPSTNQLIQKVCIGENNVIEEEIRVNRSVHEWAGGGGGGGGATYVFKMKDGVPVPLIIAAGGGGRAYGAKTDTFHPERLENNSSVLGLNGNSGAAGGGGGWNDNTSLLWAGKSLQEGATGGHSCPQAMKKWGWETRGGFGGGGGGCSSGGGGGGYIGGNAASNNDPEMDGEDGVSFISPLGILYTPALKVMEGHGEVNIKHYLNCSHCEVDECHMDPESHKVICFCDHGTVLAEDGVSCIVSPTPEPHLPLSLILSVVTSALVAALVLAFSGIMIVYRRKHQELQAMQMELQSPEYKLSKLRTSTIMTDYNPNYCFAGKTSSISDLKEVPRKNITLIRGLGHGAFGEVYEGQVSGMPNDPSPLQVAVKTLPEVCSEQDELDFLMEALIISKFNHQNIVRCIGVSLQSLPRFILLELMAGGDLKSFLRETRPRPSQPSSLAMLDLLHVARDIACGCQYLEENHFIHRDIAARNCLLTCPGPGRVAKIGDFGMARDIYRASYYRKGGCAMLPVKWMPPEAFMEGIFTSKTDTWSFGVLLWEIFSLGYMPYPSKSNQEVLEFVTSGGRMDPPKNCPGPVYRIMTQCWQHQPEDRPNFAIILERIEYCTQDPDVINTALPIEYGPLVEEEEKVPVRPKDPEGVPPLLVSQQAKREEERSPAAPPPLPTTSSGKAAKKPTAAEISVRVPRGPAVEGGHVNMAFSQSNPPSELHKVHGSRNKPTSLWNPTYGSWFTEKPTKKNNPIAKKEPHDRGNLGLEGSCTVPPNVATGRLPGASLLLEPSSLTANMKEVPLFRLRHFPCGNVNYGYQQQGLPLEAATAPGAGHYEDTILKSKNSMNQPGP
T3 sequence (P49759 whole entry): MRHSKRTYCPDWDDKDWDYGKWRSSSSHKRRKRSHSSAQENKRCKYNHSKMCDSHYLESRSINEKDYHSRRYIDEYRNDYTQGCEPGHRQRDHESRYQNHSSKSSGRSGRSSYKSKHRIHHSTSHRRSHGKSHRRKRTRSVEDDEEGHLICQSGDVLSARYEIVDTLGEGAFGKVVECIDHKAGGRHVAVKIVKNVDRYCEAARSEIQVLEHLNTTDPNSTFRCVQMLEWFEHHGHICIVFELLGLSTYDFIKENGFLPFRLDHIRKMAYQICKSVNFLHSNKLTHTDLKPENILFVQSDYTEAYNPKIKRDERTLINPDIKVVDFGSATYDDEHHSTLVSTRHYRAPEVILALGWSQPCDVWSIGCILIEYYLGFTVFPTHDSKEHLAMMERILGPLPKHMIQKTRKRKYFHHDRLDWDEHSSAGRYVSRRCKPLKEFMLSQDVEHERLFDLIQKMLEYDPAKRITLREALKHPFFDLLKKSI

On to `CCCNc1cc(Nc2ccc(C(=O)N3CCC(N4CCOCC4)CC3)c3c2OCCO3)nc2[nH]cc(C(F)(F)F)c12` [Example 162, (4-morpholinopiperidin-1-yl)(8-((4-(propylamino)-3-(trifluoromethyl)-1H-pyrrolo[2,3-b]pyridin-6-yl)amino)-2,3-dihydrobenzo[b] [1,4]dioxin-5-yl)methanone], for which the remaining binding at 1 µM was found to be 0.65% at ALK; 13% at CLK3; 13% at CLK1; 6.3% at GAK; 0.55% on CLK4; 0% at DYRK1B. The remaining binding at 1 µM on DYRK2 is 20%.

Turning to `CNc1cc(Nc2ccc(P3(=O)CCN(C4CC4)CC3)cc2OC)nc2[nH]cc(C(F)(F)F)c12` [Example 205, 1-cyclopropyl-4-(3-methoxy-4-((4-(methylamino)-3-(trifluoromethyl)-1H-pyrrolo[2,3-b]pyridin-6-yl)amino)phenyl)-1,4-azaphosphinane 4-oxide], the remaining binding at 1 µM at ALK is 1.4%; at CLK3, 37%; at CLK1, 18%; at GAK, 12%; at CLK4 it was 0.25%; at DYRK1B, 2.5%. This compound also came in with a remaining binding at 1 µM on DYRK2 of 28%.

Take `O=C(c1ccc(Nc2cc(C3CC3)c3c(C(F)(F)F)c[nH]c3n2)c2c1CCO2)N1CC[C@@H](N2CCOCC2)C1` [Example 238, (R)-(7-((4-cyclopropyl-3-(trifluoromethyl)-1H-pyrrolo[2,3-b]pyridin-6-yl)amino)-2,3-dihydrobenzofuran-4-yl)(3-morpholinopyrrolidin-1-yl)methanone]: the remaining binding at 1 µM at ALK turned out to be 67%; on CLK3, 56%; on CLK1, 2.4%; on GAK it was 27%; on CLK4 it was 0.35%; on DYRK1B, 0.7%. Also, the remaining binding at 1 µM on DYRK2 was found to be 89%.

On to `CCNc1cc(Nc2ccc(S(=O)(=O)N3CCC(N4CCOCC4)CC3)c3c2OCCO3)nc2[nH]cc(C(F)(F)F)c12` [Example 96, N^4-ethyl-N^6-(8-((4-morpholonopiperidin-1-yl)sulfonyl)-2,3-dihydrobenzo [b] [1,4]dioxin-5-yl)-3-(trifluoromethyl)-1H-pyrrolo[2,3-b]pyridine-4,6-diamine], for which the remaining binding at 1 µM came to 9.5% at ALK; 27% on CLK3; 9.7% on CLK1; 14% at GAK; 0.3% on CLK4; 3% at DYRK1B. Further, the remaining binding at 1 µM on DYRK2 was 21%.

Take `CCNc1cc(Nc2ccc(P3(=O)CCN(C4CC4)CC3)cc2OC)nc2[nH]cc(C(F)(F)F)c12` [Example 206, 1-cyclopropyl-4-(4-((4-(ethylamino)-3-(trifluoromethyl)-1H-pyrrolo[2,3-b]pyridin-6-yl)amino)-3-methoxyphenyl)-1,4-azaphosphinane 4-oxide]: the remaining binding at 1 µM was 9% at ALK; 91% on CLK3; 8.5% on CLK1; 29% at GAK; 1.2% on CLK4; 0% at DYRK1B. On DYRK2, the remaining binding at 1 µM was 45%.

As for `CCNc1cc(Nc2ccc(C(=O)N3CCC(N4C[C@@H]5C[C@H]4CO5)CC3)c3c2OCC3)nc2[nH]cc(C(F)(F)F)c12` [Example 105, (4-((1S,4S)-2-oxa-5-azabicyclo[2.2.1]heptan-5-yl)piperidin-1-yl)(7-((4-(ethylamino)-3-(trifluoromethyl)-1H-pyrrolo[2,3-b]pyridin-6-yl)amino)-2,3-dihydrobenzofuran-4-yl)methanone], the remaining binding at 1 µM was 0.3% on ALK; 5.9% on CLK3; 1.5% on CLK1; 4.8% at GAK; 5.5% on CLK4; 0.9% at DYRK1B. At DYRK2, this compound returned a remaining binding at 1 µM of 8%.

As for `CNc1cc(Nc2ccc(C(=O)N3CC[C@H](N4CCOCC4)C3)c3c2OCC3)nc2[nH]cc(C(F)(F)F)c12` [Example 217, (S)-(7-((4-(methylamino)-3-(trifluoromethyl)-1H-pyrrolo[2,3-b]pyridin-6-yl)amino)-2,3-dihydrobenzofuran-4-yl)(3-morpholinopyrrolidin-1-yl)methanone], the remaining binding at 1 µM at ALK stood at 3.8%; on CLK3, 19%; at CLK1 it was 2.4%; on GAK, 9.9%; on CLK4 it was 8.2%; on DYRK1B it was 1.4%. The remaining binding at 1 µM on DYRK2 was determined as 9.7%.

With `O=C(c1ccc(Nc2cc(C3CC3)c3c(C(F)(F)F)c[nH]c3n2)c2c1OCCO2)N1CCC(N2CCOCC2)CC1` [Example 221, (8-((4-cyclopropyl-3-(trifluoromethyl)-1H-pyrrolo[2,3-b]pyridin-6-yl)amino)-2,3-dihydrobenzo [b] [1,4]dioxin-5-yl)(4-morpholinopiperidin-1-yl)methanone], the remaining binding at 1 µM on ALK is 17%; at CLK3, 60%; at CLK1, 7.5%; on GAK it was 12%; on CLK4, 0.25%; at DYRK1B it was 0.45%. At DYRK2, the remaining binding at 1 µM stood at 18%.

On to `CNc1cc(Nc2ccc(C(=O)N3CCC(N4CCOCC4)CC3)c3c2OCCO3)nc2[nH]cc(C(F)(F)F)c12` [Example 160, (8-((4-(methylamino)-3-(trifluoromethyl)-1H-pyrrolo[2,3-b]pyridin-6-yl)amino)-2,3-dihydrobenzo [b] [1,4]dioxin-5-yl)(4-morpholinopiperidin-1-yl)methanone], for which the remaining binding at 1 µM at ALK came out at 0.65%; on CLK3, 13%; at CLK1 it was 13%; on GAK, 6.3%; on CLK4, 0.55%; at DYRK1B, 0%. At DYRK2, the remaining binding at 1 µM was determined as 20%.
